The record followed here is patent US9682033B2, “Methods of treating postherpetic neuralgia with a topical formulation of a spiro-oxindole compound” (Teva Pharmaceuticals International GmbH, priority 2015, dated 2017).

One series in a line: in vivo. The settings on record: rat, po. More on the design: species or system rats. The procedure:
The no-observed-adverse-effect level (NOAEL) was determined to be 150 mg/kg/day in both males and females. […] The NOAEL for maternal toxicity was 50 mg/kg/day. […] The NOAEL for embryo-fetal toxicity was 150 mg/kg/day.

For a further series, the system named is CYP2C19. In words: clinical. The settings on record: human, in vivo. From the text: (§1) This was a single center, open-label, 1-sequence drug-drug interaction study in 32 healthy adult male and female subjects. The study consisted of a 28-day screening period, a 10-day inpatient treatment period, and a follow-up visit. Subjects meeting the study inclusion/exclusion requirements were admitted to the clinical research unit on day −1 and were confined until day 10.
(§2) Blood samples were collected for the assessment of the pharmacokinetics of midazolam and omeprazole.
(§3) The primary pharmacokinetic endpoints were the geometric mean ratios (90% confidence intervals [CIs]) for Cmax, AUC0-t, and AUC0-inf for midazolam and omeprazole on day 9 versus day 1.
(§4) Blood samples were collected for the assessment of the pharmacokinetics of the major metabolites of midazolam (1-OH-midazolam) and omeprazole (5-OH-omeprazole), and for the spiro-oxindole compound. Further secondary pharmacokinetic variables included Cmax, tmax, AUC0-t, AUC0-inf, CL/F, λz, t1/2, and % AUCext for 1-OH-midazolam and 5-OH-omeprazole, on days 1 and 9, and Cmax, morning predose concentrations (Ctrough), average plasma concentration over the dosing interval (Cave), and area under the plasma concentration-time curve over the dosing interval (AUC0-τ) were presented for the spiro-oxindole compound.
(§5) Descriptive statistics (n, mean, geometric mean, standard deviation [SD], % CV, median, minimum, and maximum) were used to summarize plasma midazolam, omeprazole and their metabolites, and the spiro-oxindole compound concentration for all subjects overall at each scheduled time point. Descriptive statistics (as noted above) were also used to summarize plasma omeprazole, 5-OH-omeprazole, and the spiro-oxindole compound concentration for all subjects overall by CYP2C19 genotype at each scheduled time point. Pharmacokinetic parameters were derived by noncompartmental analysis. Descriptive statistics (as noted above) were used to summarize the calculated pharmacokinetic parameters for midazolam, omeprazole and their metabolites, and the spiro-oxindole compound by treatment for all subjects. Descriptive statistics (as noted above) were also used to summarize the calculated pharmacokinetic parameters for omeprazole, 5-OH-omeprazole, and the spiro-oxindole compound by treatment and CYP2C19 genotype. Plots of geometric mean and individual plasma concentrations and of select pharmacokinetic parameters for midazolam, omeprazole and their metabolites and the spiro-oxindole compound at select sampling times were provided. Additionally, plots of individual select pharmacokinetic parameters by CYP2C19 phenotype for omeprazole at select time points were provided.

The target in a further series is CYP3A4 (Homo sapiens, UniProt P08684). In words: Drug-drug interaction study in healthy subjects: midazolam (CYP3A4 substrate) pharmacokinetics (Biological Example 5). The settings on record: human, in vivo.
Chain of CYP3A4 (P08684 whole entry): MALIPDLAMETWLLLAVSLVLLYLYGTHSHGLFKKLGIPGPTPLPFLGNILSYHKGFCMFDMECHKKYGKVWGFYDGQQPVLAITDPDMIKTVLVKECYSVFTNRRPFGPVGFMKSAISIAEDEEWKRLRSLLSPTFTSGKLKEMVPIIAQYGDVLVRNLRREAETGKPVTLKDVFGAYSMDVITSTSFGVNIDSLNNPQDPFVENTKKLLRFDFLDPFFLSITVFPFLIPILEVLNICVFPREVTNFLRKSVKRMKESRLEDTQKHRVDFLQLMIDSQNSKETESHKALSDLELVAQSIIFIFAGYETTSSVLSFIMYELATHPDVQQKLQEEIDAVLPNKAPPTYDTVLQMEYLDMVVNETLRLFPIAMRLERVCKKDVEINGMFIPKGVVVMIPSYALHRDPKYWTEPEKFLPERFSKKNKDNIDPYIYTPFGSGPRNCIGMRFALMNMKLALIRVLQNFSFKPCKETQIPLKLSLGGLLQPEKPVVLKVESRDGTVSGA
Description: as §1, §2, §3, §4, §5

Consider `O=C1N(Cc2ccc(C(F)(F)F)o2)c2ccccc2[C@]12COc1cc3c(cc12)OCO3` [spiro-oxindole compound, (S)-1′-{[5-(trifluoromethyl)furan-2-yl]methyl}spiro[furo[2,3-f][1,3]benzodioxole-7,3′-indol]-2′(1′H)-one], for which, in “in vivo” (both sexes), the NOAEL (usually the highest dose or exposure tested at which no adverse effect was seen) worked out at 150 mg/kg/day. For the same compound, in the series “in vivo” (female, 50 mg/kg/day), the AUC(0-t) – broadly, the area under the concentration-time curve up to a stated or last time point – worked out at 18000 ng·h/mL and the Cmax (in general, the highest concentration seen after dosing) is 1440 ng/mL. In the series “in vivo” (female, 150 mg/kg/day), this compound displayed an AUC(0-t) of 41500 ng·h/mL and a Cmax of 3380 ng/mL. The NOAEL in “in vivo” (female, NOAEL for embryo-fetal toxicity) worked out at 150 mg/kg/day. In the series “in vivo” (female, NOAEL for maternal toxicity), this compound displayed an NOAEL of 50 mg/kg/day. Also, in the series on CYP2C19 (both), the “Geometric LS mean ration (%) (test/reference), omeprazole AUC0-inf” value is 105.751%; the “Geometric LS mean ration (%) (test/reference), omeprazole AUC0-t” value worked out at 101.553%; the “Geometric LS mean ration (%) (test/reference), omeprazole Cmax” value is reported as 98.939%; the “effect on systemic exposure to 5-OH-omeprazole (in words)” value is reported as “no relevant effect on systemic exposure to 5-OH-omeprazole”. In addition, the “effect on omeprazole pharmacokinetics (in words)” value in the series with CYP2C19 is reported as “no relevant effect on omeprazole pharmacokinetics”. Besides, the “effect on midazolam pharmacokinetics (in words)” value at CYP3A4 is recorded as “no relevant effect on midazolam pharmacokinetics”.
